Test results from patent US20120071536A1, “N-[(2-AZABICYCLO[2.1.1]HEX-1-YL)-ARYL-METHYL]-BENZAMIDE DERIVATIVES, PREPARATION THEREOF, AND THERAPEUTIC USE THEREOF” (SANOFI, priority 2009, published 2012).
Structures can show the parent of a compound that is named as a salt.

Legend:
[1] = target: T1, native human transporter GlyT1 (Homo sapiens, UniProt P48067); test: Uptake of [14C]glycine in SK-N-MC cells expressing the native human transporter GlyT1; format: cell-based; conditions: 10 μM [14C]glycine, 10 min at 37° C., pH 7.4, read-out: IC50 (concentration of the compound which reduces by 50% the specific uptake of glycine)
T1 construct: expressing the native human transporter GlyT1; endogenous in cells; host or cells: SK-N-MC cells (human neuroepithelial cells)
T1 sequence (P48067 1-706): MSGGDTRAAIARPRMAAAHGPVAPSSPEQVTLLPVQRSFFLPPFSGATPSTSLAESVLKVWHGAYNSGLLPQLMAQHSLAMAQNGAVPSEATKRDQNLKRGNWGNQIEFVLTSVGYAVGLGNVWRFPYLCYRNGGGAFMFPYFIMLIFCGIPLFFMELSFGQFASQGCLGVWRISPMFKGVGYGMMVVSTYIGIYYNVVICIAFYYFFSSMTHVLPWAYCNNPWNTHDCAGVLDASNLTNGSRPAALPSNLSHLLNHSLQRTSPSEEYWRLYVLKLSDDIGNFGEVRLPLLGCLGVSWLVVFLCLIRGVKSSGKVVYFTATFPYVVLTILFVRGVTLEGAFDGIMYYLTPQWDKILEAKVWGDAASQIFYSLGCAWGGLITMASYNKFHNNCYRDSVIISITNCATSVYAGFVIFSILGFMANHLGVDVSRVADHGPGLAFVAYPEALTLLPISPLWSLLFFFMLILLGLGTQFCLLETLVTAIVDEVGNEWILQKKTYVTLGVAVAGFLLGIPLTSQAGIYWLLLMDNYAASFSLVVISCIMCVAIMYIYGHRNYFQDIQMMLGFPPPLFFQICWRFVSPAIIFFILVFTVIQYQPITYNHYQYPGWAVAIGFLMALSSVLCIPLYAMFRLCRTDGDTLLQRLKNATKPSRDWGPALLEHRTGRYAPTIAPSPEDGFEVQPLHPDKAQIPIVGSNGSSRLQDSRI
Protocol: Study of Glycine Transportation in SK-N-MC Cells Expressing the Native Human Transporter GlyT1.
The uptake of [^14C]glycine is studied in SK-N-MC cells (human neuroepithelial cells) expressing the native human transporter GlyT1 by measuring the radioactivity incorporated in the presence or absence of the test compound. The cells are cultured as a monolayer for 48 hours in plates pretreated with 0.02% fibronectin. On the day of the experiment, the culture medium is removed and the cells are washed with Krebs-HEPES (4-(2-hydroxyethyl)piperazine-1-ethanesulphonic acid) buffer at pH 7.4. After preincubation for 10 minutes at 37° C. in the presence either of buffer (control batch) or of test compound at various concentrations or of 10 mM of glycine (determination of the non-specific uptake), 10 μM of [^14C]glycine (specific activity 112 mCi/mmol) are subsequently added. Incubation is continued for 10 min at 37° C. and the reaction is halted by washing twice with pH 7.4 Krebs-HEPES buffer. The radioactivity incorporated by the cells is then estimated after adding 100 μl of liquid scintillant and stirring for 1 h. Counting is carried out on a Microbeta Tri-Lux™ counter. The effectiveness of the compound is determined by the IC50, the concentration of the compound which reduces by 50% the specific uptake of glycine, defined by the difference in radioactivity incorporated by the control batch and the batch which received the 10 mM glycine.

Structure (SMILES) | IC50 [1] [nM] | melting point [°C]
CC(C)(O)CN1CC2CC1(C(NC(=O)c1c(Cl)ccc(C(F)(F)F)c1Cl)c1ccccc1)C2 (racemic) [Compound 22] | 110 | –
CCc1ccccc1C(=O)NC(c1ccccc1)C12CC(CN1CC)C2 (racemic) [Compound 31, 2-Ethyl-N-[(2-ethyl-2-azabicyclo[2.1.1]hex-1-yl)(phenyl)methyl]benzamide] | 1.6 | –
O=C(NC(c1ccccc1)C12CC(CN1CC(F)(F)F)C2)c1c(Cl)ccc(C(F)(F)F)c1Cl (racemic) [Compound 23, 2,6-Dichloro-N-{(phenyl)[2-(2,2,2-trifluoroethyl)-2-azabicyclo[2.1.1]hex-1-yl]methyl}-3-(trifluoromethyl)benzamide] | 300 | 82 to 83
O=C(NC(c1ccccc1)C12CC(CN1)C2)c1cccc(C(F)(F)F)c1Cl (racemic) [Compound 5, N-[(2-azabicyclo[2.1.1]hex-1-yl)(phenyl)methyl]-2-chloro-3-(trifluoromethyl)benzamide hydrochloride (1:1)] | 26 | –
CN1CC2CC1(C(NC(=O)c1cccc(C(F)(F)F)c1Cl)c1ccccc1)C2.Cl (racemic) [Compound 18, 2-Chloro-N-[(2-methyl-2-azabicyclo[2.1.1]hex-1-yl)(phenyl)methyl]-3-(trifluoromethyl)benzamide hydrochloride (1:1)] | 21 | 168.5 to 169.5
Nc1ccc(C(NC(=O)c2cccc(C(F)(F)F)c2Cl)C23CC(CN2)C3)cc1 (racemic) [Compound 1, N-[(4-Aminophenyl)(2-azabicyclo[2.1.1]hex-1-yl)methyl]-2-chloro-3-(trifluoromethyl)-benzamide] | 1100 | –
CSc1ccc(Cl)c(C(=O)NC(c2ccccc2)C23CC(CN2)C3)c1 (racemic) [Compound 11, N-[(2-Azabicyclo[2.1.1]hex-1-yl)(phenyl)methyl]-2-chloro-5-(methylsulphanyl)-benzamide] | 160 | 115 to 117
